These results are taken from ChEMBL document CHEMBL1154847, “Steroidal saponins from Chlorophytum orchidastrum” (J Nat Prod, 2010).

In one experiment the test system is HT-29. In words: Cytotoxicity against human HT-29 cells by MTT assay. Type of experiment: functional, cell-based. Background: Tetrazolium assays rely on reduction of a dye to a coloured formazan, in cell work by metabolically active cells.
For a further experiment, the system named is HCT-116. In words: Cytotoxicity against human HCT116 cells by MTT assay. Type of experiment: functional, cell-based.

The term IC50 denotes the point on the concentration scale where inhibition reaches its midpoint. Read a high IC50 as weaker potency in that assay. `C[C@H]1CC[C@@]2(OC1)O[C@H]1C[C@H]3[C@@H]4CC[C@H]5C[C@@H](O[C@@H]6[C@@H](O)[C@H](OC[C@H]7O[C@@H](O[C@@H]8[C@@H](O)[C@H](O[C@H]9[C@H](O)[C@@H](CO)O[C@@H](O[C@@H]%10[C@H](O)[C@@H](O)[C@H](O)O[C@@H]%10CO)[C@@H]9O[C@@H]9O[C@H](CO)[C@H](O)[C@H](O)[C@H]9O)O[C@H](CO)[C@H]8O)[C@H](O)[C@@H](O[C@@H]8OC[C@@H](O)[C@H](O)[C@H]8O)[C@@H]7O)O[C@H]6CO)[C@H](O)C[C@]5(C)[C@H]4CC[C@]3(C)[C@H]1[C@@H]2C` [ORCHIDASTROSIDE F]: the half-inhibitory concentration (IC50) is 8.87 µM with HT-29 and 2.12 µM in the experiment with HCT-116.
On the same counts, the results for `C[C@H]1CC[C@@]2(OC1)O[C@H]1C[C@H]3[C@@H]4CC[C@H]5C[C@@H](O[C@@H]6[C@@H](O)[C@H](OC[C@H]7O[C@@H](O[C@@H]8[C@@H](O)[C@H](O[C@H]9[C@H](O)[C@@H](CO)O[C@@H](O[C@@H]%10[C@H](O)[C@@H](O[C@@H]%11O[C@@H](C)[C@H](O)[C@@H](O)[C@H]%11O)[C@H](O)O[C@@H]%10CO)[C@@H]9O[C@@H]9OC[C@H](O)[C@H](O)[C@H]9O)OC[C@H]8O)[C@H](O)[C@@H](O[C@@H]8O[C@H](CO[C@@H]9O[C@@H](CO)[C@H](O)[C@H]9O)[C@@H](O)[C@H](O)[C@H]8O)[C@@H]7O)O[C@H]6CO)CC[C@]5(C)[C@H]4CC[C@]3(C)[C@H]1[C@@H]2C` [ORCHIDASTROSIDE C] are 3.6 µM and 1.35 µM.
Take `C[C@H]1CC[C@@]2(OC1)O[C@H]1C[C@H]3[C@@H]4CC[C@H]5C[C@@H](O[C@@H]6[C@@H](O)[C@H](OC[C@H]7O[C@@H](O[C@@H]8[C@@H](O)[C@H](O[C@H]9[C@H](O)[C@@H](CO)O[C@@H](O[C@@H]%10[C@H](O)[C@@H](O)[C@H](O)O[C@@H]%10CO)[C@@H]9O[C@@H]9O[C@H](CO)[C@H](O)[C@H](O)[C@H]9O)O[C@H](CO)[C@H]8O)[C@H](O)[C@@H](O[C@@H]8O[C@H](CO[C@@H]9O[C@@H](CO)[C@H](O)[C@H]9O)[C@@H](O)[C@H](O)[C@H]8O)[C@@H]7O)O[C@H]6CO)[C@H](O)C[C@]5(C)[C@H]4CC[C@]3(C)[C@H]1[C@@H]2C` [ORCHIDASTROSIDE E]: the IC50 in the experiment on HT-29 and with HCT-116 was 7 µM in each case.
